Test system: MC38 murine colon carcinoma cells
Experiment: MC38 Tumor Size Assay (Example 1)
Assay type: in vivo, C57BL/6 mice
Conditions: for Median TTE: 61-day study
Description: The mice were housed on irradiated Enrich-o'Cobs™ bedding in static microisolators on a 12-hour light cycle at 20-22° C. (68-72° F.) and 40-60% humidity.
MC38 murine colon carcinoma cells were grown in Dulbecco's Modified Eagle Medium (DMEM) supplemented with 10% fetal bovine serum and 2 mM glutamine, 100 units/mL penicillin G sodium, 100 μg/mL streptomycin sulfate, and 25 μg/mL gentamicin.
The MC38 colon cells used for implantation were harvested during log phase growth and re-suspended in cold PBS. Mice were anesthetized with isoflurane prior to implantation. Each mouse was injected subcutaneously in the right flank with 1×10^6 tumor cells (0.1 mL cell suspension) and tumors were monitored as their volumes approached the target range of 350 to 500 mm^3. […] Tumors were measured with calipers twice weekly in two dimensions. Tumor size was calculated using the formula:
where w=width and l=length, in mm, of a tumor. Tumor weight was estimated with the assumption that 1 mg is equivalent to 1 mm^3 of tumor volume.
The compound of formula (I) was stored at room temperature and antibody stock solutions were stored at 4° C. upon receipt.
Each week of dosing, the compound of formula (I) was dissolved in 0.5% HPMC to yield a 1.0 mg/mL dosing solution. The dosing solution was stored at 4° C., protected from light. The rat IgG2a isotype and anti-CSF1R dosing solutions were prepared fresh each day by diluting aliquots of the stock solutions with PBS to yield 1.0 mg/mL dosing solutions. The dosing solutions were stored at 4° C., protected from light. The anti-mCD40 dosing solution was prepared fresh each day by diluting an aliquot of the stock solution with PBS to yield a 0.1 mg/mL dosing solution. The dosing solution was stored at 4° C., protected from light.
On Day 1 of the study, fourteen groups of C57BL/6 mice (n=10) began dosing according to the following protocol.
The vehicle (0.5% HPMC) and the compound of formula (I) were administered orally (p.o.). The rat IgG2a isotype control, anti-mCD40, and anti-CSF1R were administered intraperitoneally (i.p.). Rat IgG2a(2A3) was administered at […]. The compound of formula (I) and anti-CSF1R were administered at 10 mg/kg, and anti-mCD40 was administered at 1 mg/kg. The dosing volume for all animals was 10 mL/kg (0.2 mL per 20-g mouse) and was adjusted for body weight.
Tumors were measured using calipers twice per week. […] TGI (tumor growth inhibition) analysis was performed on Day 15. The MTV (n), the median tumor volume for the number of animals, n, on Day 15, was determined for each group. Percent tumor growth inhibition (% TGI) was defined as the difference between the MTV of the designated control group (Group 1) and the MTV of the drug-treated group, expressed as a percentage of the MTV of the control group: […]
The data set for TGI analysis included all animals in a group, except those that died due to treatment-related or non-treatment related causes
Animals were monitored individually for tumor growth until Day 61. The study protocol specified a tumor growth delay assay based on the median time-to-endpoint (TTE) in a treated group versus the control group. Each animal was marked for tumor progression (TP) when its tumor reached the 1500 mm^3 volume endpoint. The TTE for each mouse was calculated with the following equation: […]
where b is the intercept and m is the slope of the line obtained by linear regression of a log-transformed tumor growth data set. The data set comprised the first observation that exceeded the study endpoint volume and the three consecutive observations that immediately preceded the attainment of the endpoint volume. […] In instances in which the log-transformed calculated TTE preceded the day prior to reaching endpoint or exceeded the day of reaching tumor volume endpoint, a linear interpolation was performed to approximate TTE.

[1] = Groups 3-7: all dosing from Day 1 (antibodies i.p. Days 1, 5, 9, formula (I) p.o. bid×14), formula (I) and anti-CSF1R 10 mg/kg, anti-mCD40 1 mg/kg, vs rat IgG2a control Group 1
[2] = Groups 9, 11, 13, 14: formula (I) 10 mg/kg p.o. bid×14 beginning Day 4 or anti-CSF1R 10 mg/kg i.p. Days 4, 8, 12, in combinations anti-mCD40 1 mg/kg i.p. Days 1, 5, 9, vs rat IgG2a control Group 1
[3] = number of animals of n=10, Groups 3-7: all dosing from Day 1 (antibodies i.p. Days 1, 5, 9, formula (I) p.o. bid×14), formula (I) and anti-CSF1R 10 mg/kg, anti-mCD40 1 mg/kg
[4] = number of animals of n=10, Groups 9, 11, 13, 14: formula (I) 10 mg/kg p.o. bid×14 beginning Day 4 or anti-CSF1R 10 mg/kg i.p. Days 4, 8, 12, in combinations anti-mCD40 1 mg/kg i.p. Days 1, 5, 9

Structure (SMILES): CC1(C)CC=C(c2nc(C3CC(C)(C)OC(C)(C)C3)ccc2NC(=O)c2nc(C#N)c[nH]2)CC1 [compound of formula (I), 4-cyano-N-(2-(4,4-dimethylcyclohex-1-en-1-yl)-6-(2,2,6,6-tetramethyltetrahydro-2H-pyran-4-yl)pyridin-3-yl)-1H-imidazole-2-carboxamide]
- % TGI (Day 15, vs rat IgG2a control Group 1, Groups 3-7: all dosing from Day 1 (antibodies i.p. Days 1, 5, 9, formula (I) p.o. bid×14), formula (I) and anti-CSF1R 10 mg/kg, anti-mCD40 1 mg/kg): 21%
- % TGI (Day 15, vs rat IgG2a control Group 1, Groups 9, 11, 13, 14: formula (I) 10 mg/kg p.o. bid×14 beginning Day 4 or anti-CSF1R 10 mg/kg i.p. Days 4, 8, 12, in combinations anti-mCD40 1 mg/kg i.p. Days 1, 5, 9): −24%
- Median TTE (Groups 3-7: all dosing from Day 1 (antibodies i.p. Days 1, 5, 9, formula (I) p.o. bid×14), formula (I) and anti-CSF1R 10 mg/kg, anti-mCD40 1 mg/kg, 1500 mm^3 endpoint): 17.5 days
- % TGD [1]: 17%
- T − C [1]: 2.5 days
- Median TTE (Groups 9, 11, 13, 14: formula (I) 10 mg/kg p.o. bid×14 beginning Day 4 or anti-CSF1R 10 mg/kg i.p. Days 4, 8, 12, in combinations anti-mCD40 1 mg/kg i.p. Days 1, 5, 9, 1500 mm^3 endpoint): 11.4 days
- % TGD [2]: −24%
- T − C [2]: -3.6 days
- Regression CR [3]: 0
- Regression PR [3]: 0
- Regression CR [4]: 0
- Regression PR [4]: 0
- Regression TFS (tumor-free survivors Day 61, of n=10, Groups 3-7: all dosing from Day 1 (antibodies i.p. Days 1, 5, 9, formula (I) p.o. bid×14), formula (I) and anti-CSF1R 10 mg/kg, anti-mCD40 1 mg/kg): 0
- Regression TFS (tumor-free survivors Day 61, of n=10, Groups 9, 11, 13, 14: formula (I) 10 mg/kg p.o. bid×14 beginning Day 4 or anti-CSF1R 10 mg/kg i.p. Days 4, 8, 12, in combinations anti-mCD40 1 mg/kg i.p. Days 1, 5, 9): 0

From patent US10857230B2, “Co-therapy comprising a small molecule CSF-1R inhibitor and an agonistic antibody that specifically binds CD40 for the treatment of cancer” (Janssen Biotech, Inc., priority 2017, dated 2020)
